# Experimental data: patent US11712425B2, “Immunoregulatory role of 3-OH-kynurenamine and uses thereof” (ALBERT EINSTEIN COLLEGE OF MEDICINE, priority 2018, dated 2023)
# Entries after “also recorded” stand apart in the source; their conditions may differ.
# Key:
# [1] = molecular target: T1, AhR (Mus musculus, UniProt P30561); test: AhR luciferase reporter (Cyp1a1 promoter) in mouse embryonic fibroblasts; format: cell-based; conditions: for AhR activation (luciferase reporter): MEFs constitutively expressing AhR, stimulated 24 hours, different concentrations
# T1 construct: mouse embryonic fibroblasts (MEFs) constitutively expressing AhR; endogenous in cells; host or cells: mouse embryonic fibroblasts (MEFs)
# T1 sequence (P30561 10-848): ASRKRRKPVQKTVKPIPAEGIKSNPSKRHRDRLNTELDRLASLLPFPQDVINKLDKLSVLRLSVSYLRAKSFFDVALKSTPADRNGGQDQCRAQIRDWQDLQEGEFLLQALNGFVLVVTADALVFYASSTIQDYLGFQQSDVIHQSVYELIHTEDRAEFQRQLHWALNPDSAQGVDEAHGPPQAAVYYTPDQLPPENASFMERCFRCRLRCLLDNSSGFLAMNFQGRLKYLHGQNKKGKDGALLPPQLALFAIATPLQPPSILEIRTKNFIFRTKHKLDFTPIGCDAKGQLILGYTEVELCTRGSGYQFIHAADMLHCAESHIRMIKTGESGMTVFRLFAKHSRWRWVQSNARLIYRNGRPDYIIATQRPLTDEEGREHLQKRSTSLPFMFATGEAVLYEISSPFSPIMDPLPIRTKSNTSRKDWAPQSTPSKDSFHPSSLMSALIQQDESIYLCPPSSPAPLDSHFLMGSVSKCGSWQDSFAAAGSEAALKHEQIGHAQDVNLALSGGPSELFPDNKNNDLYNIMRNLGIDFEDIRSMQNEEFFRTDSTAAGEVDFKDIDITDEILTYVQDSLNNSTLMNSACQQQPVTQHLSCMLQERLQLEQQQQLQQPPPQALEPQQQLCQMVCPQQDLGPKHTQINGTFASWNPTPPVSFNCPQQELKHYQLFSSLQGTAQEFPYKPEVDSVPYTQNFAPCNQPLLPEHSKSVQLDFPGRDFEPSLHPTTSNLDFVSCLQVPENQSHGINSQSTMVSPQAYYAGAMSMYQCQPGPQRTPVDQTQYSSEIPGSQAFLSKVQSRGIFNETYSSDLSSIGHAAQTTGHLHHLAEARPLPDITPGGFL
# Protocol: Cells were either untreated or stimulated for 24 hours with different concentrations of 3-OH-kynurenamine and, as positive control, L-kynurenine, the known AhR agonist.
# [2] = molecular target: T2, aromatic L-amino acid decarboxylase (AADC) (Homo sapiens, UniProt P20711); test: Decarboxylation by recombinant AADC; format: biochemical; conditions: enzyme plus PLP, monitored over 40 min, CO2 production
# T2 construct: full-length recombinant AADC was incubaled with 3-OH-kynurenine
# T2 sequence (P20711 1-480): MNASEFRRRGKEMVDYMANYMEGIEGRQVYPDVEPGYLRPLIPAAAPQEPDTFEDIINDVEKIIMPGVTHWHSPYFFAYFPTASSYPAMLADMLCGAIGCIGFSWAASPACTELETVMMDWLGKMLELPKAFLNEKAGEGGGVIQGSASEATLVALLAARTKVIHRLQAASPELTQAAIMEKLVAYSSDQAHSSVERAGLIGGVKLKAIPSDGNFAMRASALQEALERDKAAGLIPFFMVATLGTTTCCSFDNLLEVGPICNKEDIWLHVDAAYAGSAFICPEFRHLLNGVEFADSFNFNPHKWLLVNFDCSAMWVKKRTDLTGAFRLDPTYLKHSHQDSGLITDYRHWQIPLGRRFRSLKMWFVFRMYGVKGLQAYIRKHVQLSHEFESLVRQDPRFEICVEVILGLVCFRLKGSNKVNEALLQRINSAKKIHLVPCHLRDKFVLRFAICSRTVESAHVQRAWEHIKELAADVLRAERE
# Protocol: FIG. 2. […] Tryptophan, a natural substrate for aromatic L-amino acid decarboxylase (AADC) was incubated with the enzyme and the PLP catalyst. In a separate reaction 3-OH-kynurenine was incubated under the same experimental conditions. Reactions were monitored over a 40 min. period. […] One of a triplicate experiment is shown.
# As a next step, to determine whether AADC is the natural enzyme processing 3-OH-L-kynurenine into 3-OH-kynurenamine, full-length recombinant AADC was incubaled with 3-OH-kynurenine and its conversion to 3-OH-kynurenamine was followed by detecting CO2 production due to decarboxylation.
# [3] = test system: NFκB pathway; test: Western blot of NFκB pathway in DCs; format: cell-based; conditions: 3 independent experiments
# [4] = test system: antigen-specific delayed-type hypersensitivity; test: In vivo suppressive activity of conditioned DCs (delayed-type hypersensitivity, footpad skin test); design: species or system mice; conditions: cDCs conditioned 24 hr with 30 μM, pulsed with IGRP peptide; skin reactivity at 15 days
# Protocol: FIG. 4A-4B. […] B) In vivo suppressive activity of CD8^− DCs, pulsed with the IGRP peptide (an autoantigen in autoimmune diabetes), in combination with a minority fraction (5%) of CD8^− DCs either untreated (Unt) or pretreated with 30 μM 3-OH-kynurenamine for 24 h and pulsed with the same peptide prior in vivo administration; analysis of skin reactivity of recipient mice to the eliciting peptide at 15 days is presented as change in footpad weight. ***P<0.001 (mean weight of experimental versus control footpads, i.e., injected with vehicle alone). Results are presented as fold induction±SD of triplicate experiments.
# (§1) Biological Role of 3-OH-Kynurenamine. Trp metabolites are known to exert several functions in immune cells. In dendritic cells, either cDCs or pDCs, incubation with L-kynurenine and/or 3-OH-anthranilic acid induces IDO1 expression and production of immunosuppressive TGF-β production. In turn, cDCs and pDCs conditioned with these Trp catabolites increase differentiation of T lymphocytes into Treg cells in vitro and, when administered in vivo, induce antigen-specific T cell tolerance.
# [5] = test system: Psoriasis model; test: Imiquimod-induced psoriasis model; format: in vivo, mice; conditions: Imiquimod 7 days, 50 mg/kg ip for 7 days
# Protocol: FIG. 5A-5B. […] Some of the mice were also treated with 3-OH-Kynurenamine (50 mg/kg ip; for 7 days). Controls are mice that were shaved but left untreated; Imiquimod and Imiquimod plus 3-OH-Kynurenamine refers to the specific treatments. After 7 days mice were sacrificed and skin processed for H&E staining.
# as §1
# [6] = test system: cDCs; test: Gene expression by RT-PCR in conditioned cDCs; format: cell-based, mouse; conditions: cDCs from spleens of C57BL/6 mice, 30 μM, after 2-6 hr
# Protocol: FIG. 3A-3D. 3-OH-kynurenamine confers immunosuppressive properties on DCs. […] Analysis (B) was calculated from 3 independent experiments. C and D) mouse cDCs (C) and human PBMCs (D). After incubation with 30 (C) or 2 (D) μM kynurenines, gene expression was evaluated by RT-PCR at 6− (C) or 6 and 18 (D) h. Data were normalized to GAPDH expression and presented relative to results in untreated cells (dotted line, one-fold). Mean fold induction+SD of triplicate experiments.
# as §1
# [7] = test system: nephrotoxic nephritis (NTN); test: Nephrotoxic nephritis (NTN) model; format: in vivo, 129/Sv mice; conditions: daily intraperitoneal 50 mg/kg from day +4 until day +12
# Protocol: FIG. 6A-6F. […] Ten week old female 129/Sv mice were immunized intraperitoneally with rabbit IgG in complete Freund's adjuvant (day 0). Five days later, mice received an intravenous injection of 90 ul of pre-formed rabbit anti-mouse glomerular basement membrane antibodies (N-Ab) or PBS. Starting at day +4, mice started receiving daily intraperitoneal injections of 50 mg/kg of 3-OH-kynurenamine (n=6) or vehicle control (n=8) until sacrifice on day +12. A) Proteinuria levels determined at sacrifice by uristix. B) % of mice in each group at sacrifice that reached the predetermined cut-off value for severe proteinuria of >300 mg/dl. C) Blood Urea Nitrogen levels determined at sacrifice. D) % of mice in each group that reach pre-specified humane end points for sacrifice (>300 mg/dl on two consecutive days, a single value of >2000 mg/dl, or poor general well being. E and F) All groups of mice developed similar titers of E) antirabbit injected Ab and F) anti-GBM Ab. […] (*p<0.05, **p<0.01).
# Biological Role of 3-OH-Kynurenamine. Trp metabolites are known to exert several functions in immune cells. In dendritic cells, either cDCs or pDCs, incubation with L-kynurenine and/or 3-OH-anthranilic acid induces IDO1 expression and production of immunosuppressive TGF-β production. […]
# [8] = test system: dendritic cells; test: Quantitative proteomics of dendritic cells treated with 3-OH-kynurenamine; format: cell-based
compound,measurement,setting,value
"Nc1ccccc1C(=O)C[C@H](N)C(=O)O [L-kynurenine, reference compound]",AhR activation (luciferase reporter),[1],activated AhR in a concentration-dependent manner
Nc1c(O)cccc1C(=O)C[C@H](N)C(=O)O [3-OH-kynurenine],conversion (decarboxylation) by AADC,[2],converted to 3-OH-kynurenamine; also recorded: AADC was capable of inducing 3-OH-kynurenine decarboxylation
"N[C@@H](Cc1c[nH]c2ccccc12)C(=O)O [Trp, Tryptophan]",conversion (decarboxylation) by AADC,[2],converted to Tryptamine
NCCC(=O)c1cccc(O)c1N [3-OH-kynurenamine],"NFκB pathway (Western blot, densitometry)",[3],downregulation of the NFκB pathway
same,AhR activation (luciferase reporter),[1],induced a concentration-dependent AhR activation
same,AhR activation relative to L-kynurenine,"[1]; MEFs, 24 hours",around 6.5 times
same,antigen-specific delayed-type hypersensitivity induced by immunostimulatory cDCs,[4],suppressed antigen-specific delayed-type hypersensitivity
same,skin inflammation / clinical and histological manifestation of psoriasis,[5]; 50 mg/kg,decreases clinical and histological manifestation of psoriasis; also recorded: decrease skin inflammation
same,epidermis hyperplasia,[5]; H&E staining,statistically significant lower levels
same,ortho and parakeratosis,[5]; H&E staining,statistically significant lower levels
same,rete ridges formation,[5]; H&E staining,statistically significant lower levels
same,Tgfbl transcripts,[6],significantly upregulates
same,idol transcripts,[6],significantly upregulates
same,"nephrotoxic nephritis / kidney damage (proteinuria, overall animal survival)",[7],attenuates nephrotoxic nephritis (NTN)
same,"nephrotoxic nephritis / kidney damage (proteinuria, overall animal survival)",[7]; listed as 3-OH-Kynurenamine,decrease
same,NF-κB inhibitor IKB level (quantitative proteomic),"[8]; cDC, 20 μM, 24 hr, IFNγ/3-OH-kynurenamine vs IFNγ control",up-regulation of the NF-κB inhibitor IKB
same,MS1 quantification of immunological relevant proteins,"[8]; dendritic cells, media supplemented with 3-OH-Kynurenamine vs media alone",down-regulated
